Experimental data: article PMC8137933, “Using molecular dynamics simulations to prioritize and understand AI-generated cell penetrating peptides” (Scientific Reports, 2021)

Test system: HeLa cells
Type: cell-based
Procedure: We first evaluated cell toxicity of Pep-MD. Specifically, we quantified HeLa cell viability using CellTiter-Glo® Luminescent Cell Viability Assay kit in the presence of a series of concentration of Pep-MD, 0.1, 0.5 and 2 µM, in serum-free cell culture media. The kit can visualize the number of viable cells as chemiluminescence intensity based on quantitation of the ATP present, an indicator of metabolically active cells. As a positive control, we also evaluated TAT (GRKKRRQRRR in amino acid sequence).
The HeLa cell line was purchased from RIKEN cell bank (Tsukuba, Japan). HeLa cells were cultured in Dulbecco’s Eagle’s medium (DMEM, FUJIFILM Wako Pure Chemical, Japan) supplemented with inactivated 10% fetal bovine serum (FBS, Biosera, France) and 1% penicillin–streptomycin solution (FUJIFILM Wako Pure Chemical).
HeLa cells were seeded at a density of 8000 cells per well in 96 well plate (AGC Techno Glass, Shizuoka, Japan). […] Cell viability of each well was quantified with CellTiter-Glo® Luminescent Cell Viability Assay kit (Promega, Madison, WI, USA) and EnSpire™ microplate reader (PerkinElmer, Waltham, MA, USA) according to manufacturer’s instructions. The cell viability was calculated as the chemiluminescence intensity ratio of samples to that of […] without peptide.

Row | Sequence | Cell toxicity (HeLa cell viability) at 2.0 µM
1 | GRKKRRQRRR [TAT] | significant cell toxicity
2 | YRGWHCRGITKNGIIFDIKW [Pep-MD] | little toxicity
